From a melting point compilation (Tetko et al.) come the findings set out here.

Structures are written as SMILES.

Broadly, the melting point is the temperature of the solid-liquid transition. Regarding `COc1ccc(C)cc1NCCCC(=O)O`, the melting point lay within 99 to 101 °C.

The molecule `Cc1nn(-c2ccc(F)cc2)c(Cl)c1C=O` returned a melting point of 124 to 126 °C.

On to `Brc1cnc2nc3ccccc3n2c1`, for which the melting point fell in the range of 269 to 271 °C.

As for `CN1CCC(=O)Nc2cc(C(=O)O)ccc21`, the melting point lay in the range of 249 to 251 °C.

With `Nc1ccc(S(=O)(=O)C2CCCC2)cc1`, the melting point is 113 to 115 °C.

`Cc1ccc(-c2n[nH]c(S)nc2=O)cc1` returned a melting point of 225 to 227 °C.

With `Cn1cc(OCc2ccccc2)c(=O)cc1CO`, the melting point lay in the range of 221 to 223 °C.

In the case of `CCOc1ccc(C(C)=O)cc1OCC`, the melting point was 49 to 51 °C.

In turn, `N#Cc1cc2c(nc1N)CCC2` gave a melting point of 205 to 207 °C.

Regarding `COc1ccc(CBr)cc1C#N`, the melting point was 119 to 121 °C.

The molecule `Cc1n[nH]c(C)c1CCC(=O)O` had a melting point of 169 to 171 °C.

In the case of `NCCNc1ncnc2sccc12`, the melting point lay within 117 to 119 °C.

In turn, `CS(=O)(=O)NC1CCNCC1` had a melting point of 143 to 145 °C.

`CC(C)c1n[nH]c(-c2ccccc2N)n1` registered a melting point of 125 to 127 °C.

Regarding `C=CCNS(=O)(=O)c1cc(C(=O)O)ccc1F`, the melting point lay in the range of 164 to 166 °C.

Take `CCCOc1ccc(C=O)cc1OCC`: the melting point is 36 to 38 °C.

For `O=C(O)c1nnn(-c2ccccc2F)c1C(F)(F)F`, the melting point is 133 to 135 °C.

Molecule `O=C(O)CCc1ccc(Br)cc1F` showed a melting point of 97 to 99 °C.

As to `O=C(O)C1CSCN1C(=O)c1ccc(Cl)cc1` (stereo unspecified), the melting point lay in the range of 60 to 62 °C.

For `Nc1n[nH]c2nc3ccccc3cc12`, the melting point lay within 314 to 316 °C.

`CCOC(=O)c1c[nH]c2cc(OC)cc(OC)c2c1=O`: the melting point was in the range of 257 to 259 °C.

`C=CCN(c1ccccc1Cl)S(=O)(=O)c1cccc(C(=O)O)c1` came in with a melting point of 103 to 105 °C.

In the case of `CCCCn1c(=O)[nH]c(=O)c2c1nc(CCl)n2C`, the melting point lay within 222 to 224 °C.

In turn, `CCc1c(C(=O)CCl)[nH]c(C)c1C(C)=O` returned a melting point of 143 to 145 °C.

For `CN1CCN(C(=O)Cn2cc(N)cn2)CC1`, the melting point is 119 to 121 °C.

As for `Cc1cc(C(N)C(=O)O)ccc1Cl` (stereo unspecified), the melting point fell in the range of 218 to 220 °C.

In the case of `NNC(=O)c1sc2cc(F)ccc2c1Cl`, the melting point is 239 to 241 °C.

Take `CN(C)C(=O)c1ccc2c(c1)CCN2`: the melting point is 156 to 158 °C.

`CC(Oc1ccc(Cl)c(Cl)c1)C(=O)O` (stereo unspecified) gave a melting point of 125 to 127 °C.

Regarding `COc1ccc(Cl)cc1NC(=O)CC(=O)Nc1cc(Cl)ccc1OC`, the melting point fell in the range of 98 to 101 °C.

The molecule `Nc1ccc(Cl)cc1-c1nc(C2CCCC2)no1` gave a melting point of 107 to 109 °C.

Molecule `Fc1cccc2cc(I)cnc12` had a melting point of 77 to 79 °C.

In turn, `CC(C)(C)C(N)c1nc(-c2nnc[nH]2)no1` (stereo unspecified) registered a melting point of 169 to 171 °C.

As for `O=S(=O)(c1ccc(S)cc1)C(F)(F)F`, the melting point lay within 116 to 118 °C.

For `CCc1cc(NN)nc(-c2ccccn2)n1`, the melting point lay within 110 to 112 °C.

With `Nc1cccc(N2CCCC2=O)c1`, the melting point fell in the range of 106 to 108 °C.

`O=C(O)c1ccc(NCCO)cc1`: the melting point fell in the range of 196 to 198 °C.

`CCc1cccc(CC(=O)O)c1` registered a melting point of 58 to 60 °C.

For the molecule `O=C(O)CC1SC(=Nc2ccccc2)NC1=O` (stereo unspecified), the melting point was 202 to 204 °C.

The molecule `ON=Cc1ccc(OCc2ccccn2)cc1` came in with a melting point of 154 to 156 °C.

For `Cc1cc(Cl)cc2cc(C#N)oc12`, the melting point lay in the range of 113 to 115 °C.

As for `NNS(=O)(=O)CCc1ccccc1`, the melting point fell in the range of 62 to 64 °C.

Turning to `NS(=O)(=O)c1ccc(Cl)c(S(=O)(=O)Cl)c1`, the melting point fell in the range of 185 to 187 °C.

In turn, `ON=Cc1csnn1` displayed a melting point of 136 to 138 °C.

In turn, `O=C1CCc2cc(Br)c(F)cc2N1` showed a melting point of 210 to 212 °C.

On to `N#CC1=C(N)CCCC1`, for which the melting point was 92 to 94 °C.

Regarding `Cn1[nH]c(=O)c2c(=O)cc[nH]c21`, the melting point lay within 327 to 329 °C.

`Brc1ccc(C2CNCCO2)cc1` (stereo unspecified) had a melting point of 53 to 55 °C.

The molecule `COC(=O)c1cc(-c2cccs2)ccc1N` came in with a melting point of 89 to 91 °C.

In the case of `COCc1cc(Cl)n2ncnc2n1`, the melting point is 104 to 106 °C.

`O=S(=O)(Cl)N1CC2CCC1C2` (stereo unspecified): the melting point lay in the range of 47 to 49 °C.

Molecule `C#CCn1c(C)nc2ccccc21` showed a melting point of 67 to 69 °C.

Molecule `Cc1cc(C)n(-c2ccc(CC#N)cc2)n1` displayed a melting point of 45 to 55 °C.

`CCOC(=O)C(=O)CC(=O)c1ccc(OC)cc1` registered a melting point of 51 to 53 °C.

`Cn1ncnc1COc1ccc(S(N)(=O)=O)cc1` gave a melting point of 176 to 178 °C.

The molecule `Oc1ccc(-n2cccn2)cc1` displayed a melting point of 107 to 109 °C.

In the case of `NNC(=O)c1ccc2ccccc2n1`, the melting point lay within 133 to 135 °C.

In the case of `CCc1nc(N)sc1C(=O)O`, the melting point lay in the range of 154 to 156 °C.

Molecule `COc1ccc(C(=O)O)cc1S(=O)(=O)N1CCCc2ccccc21` displayed a melting point of 211 to 213 °C.

With `NS(=O)(=O)c1ccc2c(c1)CC(=O)N2`, the melting point was in the range of 252 to 254 °C.

In turn, `CCOc1ccccc1CCC(=O)O` yielded a melting point of 70 to 72 °C.

For the molecule `CCOc1oc(-c2ccccc2)nc1C(=O)O`, the melting point lay in the range of 147 to 149 °C.

For the molecule `CN(c1ccccc1)c1ccc(C=O)cc1[N+](=O)[O-]`, the melting point was 95 to 97 °C.

Molecule `CCOC=C1C(=O)N(c2ccc(OCC)cc2)C(=O)c2ccccc21` registered a melting point of 175 to 177 °C.

`CC1(c2ccc(OC(F)(F)F)cc2)NC(=O)NC1=O` (stereo unspecified) gave a melting point of 151 to 153 °C.

In the case of `CCC1SC(N)=NC1=O` (stereo unspecified), the melting point is 188 to 190 °C.

For the molecule `N#CCCn1cc(C(=O)O)c(-c2cccc([N+](=O)[O-])c2)n1`, the melting point fell in the range of 242 to 244 °C.

As for `O=C(O)C=Cc1cn(-c2ccccc2)nc1-c1cccc([N+](=O)[O-])c1`, the melting point is 248 to 250 °C.

Molecule `COc1cc(C)c(CSCC(=O)O)cc1OC` yielded a melting point of 63 to 65 °C.

For `O=C(O)c1cnn(-c2ncccc2Cl)c1C(F)F`, the melting point fell in the range of 178 to 180 °C.

As for `Cc1ccc(C=CC(=O)O)nc1`, the melting point is 163 to 165 °C.

The molecule `COC(=O)c1c(C(=O)CCl)c(C)n(C2CC2)c1C` came in with a melting point of 74 to 78 °C.

For `O=C(O)c1ccn(-c2c(Cl)cc([N+](=O)[O-])cc2Cl)n1`, the melting point was 206 to 208 °C.

In the case of `Nc1nncc(-c2ccc(F)cc2)n1`, the melting point was in the range of 248 to 250 °C.

Regarding `O=C(O)C1CC(O)CN1C(=O)C12CC3CC(CC(C3)C1)C2` (stereo unspecified), the melting point was 206 to 208 °C.

As for `O=C(O)C=C(C1CC1)C1CC1`, the melting point was in the range of 134 to 136 °C.

`O=C(C1CCCCC1)N1CCNCC1` showed a melting point of 86 to 88 °C.

`OC(c1ccc(Cl)cc1)C1CCNCC1` (stereo unspecified) came in with a melting point of 139 to 141 °C.

`O=C(O)CCC(NC(=O)Cc1ccc2ccccc2c1)C(=O)O` (stereo unspecified) displayed a melting point of 173 to 175 °C.

For the molecule `Cc1nc(-c2ccccc2)c(N)s1`, the melting point lay within 169 to 171 °C.

`O=C(O)C1(C(F)(F)F)CCN(Cc2ccccc2)C1` (stereo unspecified) registered a melting point of 210 to 212 °C.

Take `NNc1nc2cc(C(F)(F)F)ccc2s1`: the melting point fell in the range of 219 to 221 °C.

Consider `Fc1ccc2c(Cl)ccnc2c1`, for which the melting point was in the range of 71 to 73 °C.

Molecule `Fc1ccc(-n2c(S)nc3ccccc32)cc1` gave a melting point of 237 to 239 °C.

The molecule `CC(=O)NCCc1ccc(C(=O)O)cc1` registered a melting point of 175 to 177 °C.

Molecule `COc1cc(Br)ccc1C(N)=O` gave a melting point of 134 to 136 °C.

In turn, `CCc1ccc(-c2csc(N)n2)s1` showed a melting point of 92 to 94 °C.

For `COc1ccc(CNC(=O)C(C#N)=CN(C)C)cc1`, the melting point fell in the range of 128 to 130 °C.

On to `NC(C(=O)O)c1ccc(Cl)cc1` (stereo unspecified), for which the melting point is 219 to 221 °C.

`Cc1ccc(COc2cccc(N)c2)cc1`: the melting point was 81 to 83 °C.

The molecule `Cc1cc2ncc(Br)cn2n1` showed a melting point of 137 to 139 °C.

Molecule `O=C(O)Cc1coc2cc3c(cc12)CCC3` showed a melting point of 151 to 153 °C.

Turning to `O=C1CNC(=O)N1c1cccc([N+](=O)[O-])c1`, the melting point fell in the range of 164 to 166 °C.

For the molecule `O=c1c(Cl)c(Cl)cnn1-c1ccc(C(F)(F)F)cn1`, the melting point lay within 111 to 115 °C.

In turn, `CN(C)CCc1ccc(C(=O)O)cc1` came in with a melting point of 163 to 165 °C.

`N#Cc1cccc(C(F)(F)F)n1`: the melting point lay within 36 to 38 °C.

The molecule `CC(C)c1ccc(S(=O)(=O)N2CC(O)CC2C(=O)O)cc1` (stereo unspecified) registered a melting point of 153 to 155 °C.

`CCOC(=O)C(N)c1cccc(O)c1` (stereo unspecified): the melting point fell in the range of 148 to 150 °C.

`COCCNc1nc(Cl)nc(Cl)n1` displayed a melting point of 71 to 73 °C.

In turn, `CC(=O)c1ccc(NC(=O)CI)cc1` gave a melting point of 139 to 141 °C.

`Cc1nn(-c2ccc(F)cc2)c(C)c1C(=O)O` registered a melting point of 219 to 221 °C.

In turn, `CC(C)Nc1nnc(S)s1` displayed a melting point of 194 to 196 °C.

In turn, `Cc1nc(Cl)nc(N(C)C)n1` gave a melting point of 81 to 83 °C.

`CCOc1ccc(NC(=O)CCl)cc1S(=O)(=O)N1CCCCC1` came in with a melting point of 129 to 131 °C.

In turn, `O=S1(=O)NN=Cc2ccccc21` returned a melting point of 141 to 143 °C.

Molecule `NC(=O)CCC(NC(=O)CCC1CCCC1)C(=O)O` (stereo unspecified) gave a melting point of 146 to 148 °C.

Molecule `C1=C(c2c[nH]c3ncccc23)CCNC1` yielded a melting point of 181 to 183 °C.

The molecule `CC1(c2ccccc2)NC(=O)N(CC(=O)O)C1=O` (stereo unspecified) had a melting point of 170 to 172 °C.

In turn, `O=C(O)c1ccc(Cl)c2cccnc12` registered a melting point of 199 to 201 °C.

`Cc1cc(C)c2c(C#N)c[nH]c2n1` registered a melting point of 316 to 318 °C.

Molecule `NS(=O)(=O)Cc1ccc(CO)cc1` registered a melting point of 118 to 120 °C.

`OCC(NCc1ccccc1)C1CC1` (stereo unspecified) showed a melting point of 56 to 58 °C.

`O=C1NC(=O)N(C2CCS(=O)(=O)C2)C1=O` (stereo unspecified) showed a melting point of 244 to 246 °C.

The molecule `CCOC(=O)/C(C#N)=C\Nc1cc(F)cc(F)c1` gave a melting point of 174 to 176 °C.

In the case of `Cc1nn(C)c2nc(C(C)C)cc(C(=O)O)c12`, the melting point is 211 to 213 °C.

Molecule `CCN(CC)C(N)=S` displayed a melting point of 98 to 102 °C.

`O=C(O)c1ccc(Br)cc1Oc1ccc(F)cc1` yielded a melting point of 187 to 189 °C.

The molecule `COc1cc(C)nc(NN)n1` showed a melting point of 116 to 118 °C.

In turn, `NS(=O)(=O)C#Cc1ccccc1` yielded a melting point of 136 to 138 °C.

The molecule `CC(C)(C)c1ccc(C(C)(C)C(=O)O)cc1` yielded a melting point of 165 to 167 °C.

`COC(=O)c1cc2ccccc2c(Cl)n1` came in with a melting point of 110 to 112 °C.
